From patent publication US12391672B2, “Solid forms comprising (S)-4-(4-(4-(((2-(2,6-dioxopiperidin-3-yl)-1-oxoisoindolin-4-yl)oxy)methyl)benzyl)piperazin-1-yl)-3-fluorobenzonitrile and salts thereof, and compositions comprising and methods of using the same” (Celgene Corporation, priority 2019, dated 2025)

Legend:
Type in all cases: physicochemical
[1] = Solid state stability under accelerated storage conditions; settings: 40° C./75% RH, 80° C. and ambient light/temperature for 1 week
Description: Form A was not isolated directly as a wet cake but formed only upon drying of Form E in polymorphism studies. […] Small quantities of Form A were generated by dissolving a crude Compound 1 in MEK at high temperature, followed by fast cooling to room temperature, filtration and drying. DSC and TGA data were obtained for samples of Form A and following storage for 1 week at 60° C. and 60° C./75% RH. […] TGA analysis confirmed that this broad endotherm was most likely due to moisture uptake under the accelerated storage conditions. Most of the weight loss of 0.82% in this sample occurred in a single step at less than 75° C. By contrast, weigh loss was a two-step process at the initial time point. […] The residual solvent initially present in the sample was lost upon storage of the sample at 60° C. (0.13% weight loss between 25 to 150° C.).
Form B could be obtained from a process involving methyl acetate. […] HPLC traces were taken of the samples of Form B and following storage for 2 week at 60° C. and 60° C./75% RH. […] Several small degradation products were seen to grow especially in the sample stored at 60° C. Chiral instability was also observed in the sample stored at 60° C./75% RH.
Physical stability: Visually, all samples of Form K were white colored powder with no apparent change in color in the samples stored under accelerated conditions (40° C., 40° C./75% RH, 60° C., 60° C./75% RH and sample stored in light chamber in clear vials exposed to light and covered in aluminum foil) for 14 d relative to the sample stored refrigerated and under ambient conditions.
Solid state chemical stability: HPLC analysis were performed on Form K samples stored under the accelerated stability conditions. […] Based on the HPLC analysis data, there is a measurable but small change in the chemical stability of Form K under the accelerated conditions of temperature, humidity and exposure to light over the 14 d period.
Solid state chiral stability: Chiral stability of Form K samples stored under accelerated stability conditions was tested. There was ˜2.9% of the R-enantiomer (97.1 area % of the active S-isomer) in the initial sample. […]
The chiral purity (area % of S-isomer) remained […] under the accelerated stability conditions.

[2] = Solubility of polymorphic forms in physiologically relevant media and final pH
Excerpt: Solubility data of the several polymorphic forms of Compound 1 in physiologically relevant media and the final pH of these solutions are summarized in the following tables.

[3] = Dynamic vapor sorption / hygroscopicity
Description: Projekt Messtechnik (now ProUmid) SPS11-100n. The sample was placed on an aluminum holder on top of a microbalance and allowed to equilibrate at 50% r.h. before starting one of the following pre-defined humidity programs (1 cycle): • hold 2 h at 50% r.h., • decrease humidity −5% r.h. h^−1 for 10 h (i.e., from 50% r.h. to 0% r.h.), • hold 5 h at […]., • increase humidity +5% r.h. h^−1 for 19 h (i.e., from 0% r.h. to 95% r.h.), • hold 5 h at 95% r.h., • decrease humidity −5% r.h. h^−1 for 9 h (i.e., from 95% r.h. to 50% r.h.), • hold 2 h at 50% r.h. or • hold 2 h at 50% r.h., • increase humidity +5% r.h. h^−1 for 9 h (i.e., from 50% r.h. to 95% r.h.), • hold 5 h at 95% r.h., • decrease humidity −5% r.h. h^−1 for 19 h (i.e., from 95% r.h. to 0% r.h.), • hold 5 h at 0% r.h., • increase humidity +5% r.h. h^−1 for 10 h (i.e., from 0% r.h. to 50% r.h.), • hold 2 h at 50% r.h.
The hygroscopicity was classified based on the mass gain at 85% r.h. relative to the initial mass as follows: deliquescent (sufficient water adsorbed to form a liquid), very hygroscopic (mass increase of […]), hygroscopic (mass increase of <15% but ≥2%), slightly hygroscopic (mass increase of <2% but ≥0.2%), or non-hygroscopic (mass increase of <0.2%).

[4] = HBr salt solubility in buffers (1 mg/mL slurries, mother liquor by HPLC); settings: all buffers tested
Description: (§1) The HBr salt was largely insoluble in various buffers when 1 mg/mL slurries were prepared and the mother liquor concentration determined (by HPLC): <0.05 mg/mL in all buffers tested.

[5] = Competitive slurry and slurry stability experiments
Description: Form B was obtained at room temperature while form C was obtained at 45° C. in acetone alone.
as §1

Br.N#Cc1ccc(N2CCN(Cc3ccc(COc4cccc5c4CN([C@H]4CCC(=O)NC4=O)C5=O)cc3)CC2)c(F)c1
physical (XRPD) and chemical (HPLC) stability [1]: both physically and chemically stable
Solubility ([2]; FaSSIF): <LOQ
Solubility ([2]; FeSSiF): 0.111 mg/mL
Solubility ([2]; SGF with pepsin): 0.077 mg/mL
Solubility ([2]; Water, t0): 0.301(t0), mg/ml
Solubility ([2]; Water, t24): 0.212 mg/mL
Solubility ([2]; pH 1 buffer HC1/NaC1): 0.018 mg/mL
Solubility ([2]; pH 3 buffer (phosphate)): 0.032 mg/mL
Solubility ([2]; pH 4 buffer (acetate)): 0.038 mg/mL
Solubility ([2]; pH 5 buffer (acetate)): 0.004 mg/mL
Final pH ([2]; solubility sample in FaSSIF): 6.40
Final pH ([2]; solubility sample in FeSSiF): 5.16
Final pH ([2]; solubility sample in SGF with pepsin): 1.15
Final pH ([2]; solubility sample in Water): 4.53
Final pH ([2]; solubility sample in pH 1 buffer HC1/NaC1): 0.95
Final pH ([2]; solubility sample in pH 3 buffer (phosphate)): 3.11
Final pH ([2]; solubility sample in pH 4 buffer (acetate)): 4.18
Final pH ([2]; solubility sample in pH 5 buffer (acetate)): 5.08
hygroscopicity ([3]; DVS, class by mass gain at 85% r.h.): slightly hygroscopic (slightly hygroscopic (mass increase of <2% but ≥0.2%))
solid form after DVS cycle ([3]; after the DVS humidity cycle): remains as Form A
DVS mass increase ([3]; relative humidity from about 0% to about 95%): about 0.7%
DVS mass increase ([3]; relative humidity from about 5% to about 90%): about 0.7%
DVS mass increase ([3]; up to 90% RH): ~0.69%
mother liquor concentration in buffers [4]: < 0.05 mg/mL
disproportionation in water ([5]; slurried in water for ~24 h): did not appear to disproportionate back to the free base
slurry in acetone/water mixtures (XRPD) ([5]; various water activities): no hydrate formation evident
